PMC7473772 (eLife, 2020)
“And” between values parts separate entries of the source, which are not always exact repeats. Identical values can stand only once. Like-named read-outs stand apart in the source and are kept apart here.

Assays:
[1] = tested on: tbaqp2/tbaqp3 null cells expressing TbAQP2^W192G; type: cell-based, Trypanosoma brucei brucei
[2] = tested on: tbaqp2/tbaqp3 null cells expressing TbAQP2 L84W; experiment: microbe, parasite or virus in culture; type: cell-based, Trypanosoma brucei brucei
[3] = tested on: tbaqp2/tbaqp3 null cells expressing TbAQP2WT; experiment: microbe, parasite or virus in culture; type: cell-based, Trypanosoma brucei brucei
TbAQP3^W102I/R256L = TbAQP3^W102I/R256L (Trypanosoma brucei brucei, UniProt Q6ZXT2, R256L/W102I); experiment: [3H]-pentamidine transport; type: cell-based; details: AQP3 W102I/R256L; over 30 minutes
Sequence of TbAQP3^W102I/R256L (Q6ZXT2 whole entry W102I/R256L): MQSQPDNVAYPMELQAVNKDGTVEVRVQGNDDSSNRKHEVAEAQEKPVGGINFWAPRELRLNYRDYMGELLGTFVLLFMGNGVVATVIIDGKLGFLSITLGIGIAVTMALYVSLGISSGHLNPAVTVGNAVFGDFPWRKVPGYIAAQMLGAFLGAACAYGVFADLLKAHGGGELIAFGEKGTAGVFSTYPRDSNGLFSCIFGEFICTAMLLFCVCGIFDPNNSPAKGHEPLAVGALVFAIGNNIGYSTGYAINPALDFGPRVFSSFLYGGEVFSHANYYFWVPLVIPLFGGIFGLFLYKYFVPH

CRK12 RNAi cells = experiment: [3H]-pentamidine transport after CRK12 RNAi induction (endocytosis defect); type: cell-based, Trypanosoma brucei
tbaqp2/tbaqp3 null cells [4] = experiment: [3H]-pentamidine transport; type: cell-based, Trypanosoma brucei brucei
TbAQP3^W102I/R256L/Y250L = TbAQP3^W102I/R256L/Y250L (Trypanosoma brucei brucei, UniProt Q6ZXT2, R256L/W102I/Y250L); experiment: [3H]-pentamidine transport; type: cell-based; details: AQP3 W102I/R256L/Y250L; over 30 minutes
Sequence of TbAQP3^W102I/R256L/Y250L (Q6ZXT2 whole entry W102I/Y250L/R256L): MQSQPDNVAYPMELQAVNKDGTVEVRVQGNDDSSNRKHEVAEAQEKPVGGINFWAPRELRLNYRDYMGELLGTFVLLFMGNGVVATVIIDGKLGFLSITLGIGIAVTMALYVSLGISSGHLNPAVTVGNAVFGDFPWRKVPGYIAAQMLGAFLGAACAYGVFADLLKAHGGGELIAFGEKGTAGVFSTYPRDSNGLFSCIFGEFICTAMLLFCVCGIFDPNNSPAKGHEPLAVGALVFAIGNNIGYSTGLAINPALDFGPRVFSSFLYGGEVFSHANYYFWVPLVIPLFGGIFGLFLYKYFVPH

TbAQP2/HAPT1 = TbAQP2/HAPT1 (Trypanosoma brucei brucei, UniProt Q6ZXT3); details: cited from earlier work
Sequence of TbAQP2/HAPT1 (Q6ZXT3 whole entry): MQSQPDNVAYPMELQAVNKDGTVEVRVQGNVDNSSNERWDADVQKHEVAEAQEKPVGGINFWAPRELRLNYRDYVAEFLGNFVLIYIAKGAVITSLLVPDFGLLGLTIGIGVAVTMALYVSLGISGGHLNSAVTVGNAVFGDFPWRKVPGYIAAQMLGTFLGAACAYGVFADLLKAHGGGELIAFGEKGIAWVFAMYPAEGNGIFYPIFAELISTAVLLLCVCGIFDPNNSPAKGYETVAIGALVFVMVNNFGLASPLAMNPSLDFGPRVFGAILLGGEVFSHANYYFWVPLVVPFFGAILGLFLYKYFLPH

T. b. brucei 2T1 = type: cell-based, Trypanosoma brucei brucei
TbAQP2^L264R = TbAQP2^L264R (Trypanosoma brucei brucei, UniProt Q6ZXT3, L264R); experiment: [3H]-pentamidine transport; type: cell-based; details: 30 nM [3H]-pentamidine
Sequence of TbAQP2^L264R (Q6ZXT3 whole entry L264R): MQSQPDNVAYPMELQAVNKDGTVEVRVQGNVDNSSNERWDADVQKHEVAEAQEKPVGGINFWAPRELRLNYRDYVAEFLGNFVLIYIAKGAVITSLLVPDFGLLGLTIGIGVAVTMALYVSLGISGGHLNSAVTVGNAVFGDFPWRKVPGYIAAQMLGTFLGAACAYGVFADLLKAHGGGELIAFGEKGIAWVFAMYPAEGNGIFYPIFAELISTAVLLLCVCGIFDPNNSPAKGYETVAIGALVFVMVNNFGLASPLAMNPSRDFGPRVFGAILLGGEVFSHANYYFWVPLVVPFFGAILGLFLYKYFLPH

[5] = tested on: tbaqp1-2-3 null cells expressing TbAQP2 position 84, 118 and 218 Trp and Met mutants; experiment: Drug sensitivity assay (resazurin), pentamidine and SHAM; type: cell-based, Trypanosoma brucei brucei
[6] = tested on: tbaqp2/tbaqp3 null cells expressing TbAQP3^W102I/R256L; type: cell-based, Trypanosoma brucei brucei
TbAQP2 L84W = TbAQP2 L84W (Trypanosoma brucei brucei, UniProt Q6ZXT3, L84W); experiment: [3H]-pentamidine transport; type: cell-based; details: AQP2 mutant L84W; n=5
Sequence of TbAQP2 L84W (Q6ZXT3 whole entry L84W): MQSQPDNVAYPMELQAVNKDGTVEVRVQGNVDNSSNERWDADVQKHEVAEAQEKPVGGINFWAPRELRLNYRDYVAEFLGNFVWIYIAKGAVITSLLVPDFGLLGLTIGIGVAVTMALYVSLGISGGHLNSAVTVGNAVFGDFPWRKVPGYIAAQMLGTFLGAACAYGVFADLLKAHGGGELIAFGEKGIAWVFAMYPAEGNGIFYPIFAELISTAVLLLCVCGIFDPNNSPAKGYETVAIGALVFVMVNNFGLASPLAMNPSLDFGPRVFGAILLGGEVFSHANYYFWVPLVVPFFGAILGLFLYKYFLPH

TbAQP2^S131P/S263A = TbAQP2^S131P/S263A (Trypanosoma brucei brucei, UniProt Q6ZXT3, S131P/S263A); experiment: [3H]-pentamidine transport; type: cell-based; details: 30 nM [3H]-pentamidine
Sequence of TbAQP2^S131P/S263A (Q6ZXT3 whole entry S131P/S263A): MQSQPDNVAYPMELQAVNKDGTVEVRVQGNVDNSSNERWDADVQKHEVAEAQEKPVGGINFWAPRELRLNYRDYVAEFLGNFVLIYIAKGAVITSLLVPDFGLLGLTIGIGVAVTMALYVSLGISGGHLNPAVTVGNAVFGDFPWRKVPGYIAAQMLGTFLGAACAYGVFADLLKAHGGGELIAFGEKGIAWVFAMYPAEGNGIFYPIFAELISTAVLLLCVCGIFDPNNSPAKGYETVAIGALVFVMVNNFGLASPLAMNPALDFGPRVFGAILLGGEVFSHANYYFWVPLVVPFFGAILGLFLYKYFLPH

[7] = tested on: tbaqp2/tbaqp3 null cells expressing TbAQP2^L258Y; type: cell-based, Trypanosoma brucei brucei
TbAQP2^L258Y = TbAQP2^L258Y (Trypanosoma brucei brucei, UniProt Q6ZXT3, L258Y); experiment: [3H]-pentamidine transport; type: cell-based; details: 30 nM [3H]-pentamidine
Sequence of TbAQP2^L258Y (Q6ZXT3 whole entry L258Y): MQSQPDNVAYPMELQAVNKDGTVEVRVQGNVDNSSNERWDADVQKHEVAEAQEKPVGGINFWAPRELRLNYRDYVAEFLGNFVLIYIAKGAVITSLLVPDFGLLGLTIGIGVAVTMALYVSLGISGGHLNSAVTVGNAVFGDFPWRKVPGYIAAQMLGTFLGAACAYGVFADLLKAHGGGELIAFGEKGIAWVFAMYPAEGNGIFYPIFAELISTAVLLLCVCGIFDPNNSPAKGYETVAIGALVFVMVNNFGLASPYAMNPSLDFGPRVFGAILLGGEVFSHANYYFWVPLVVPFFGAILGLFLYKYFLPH

TbAQP2 L218W = TbAQP2 L218W (Trypanosoma brucei brucei, UniProt Q6ZXT3, L218W); experiment: [3H]-pentamidine transport; type: cell-based; details: AQP2 mutant L218W; n=4
Sequence of TbAQP2 L218W (Q6ZXT3 whole entry L218W): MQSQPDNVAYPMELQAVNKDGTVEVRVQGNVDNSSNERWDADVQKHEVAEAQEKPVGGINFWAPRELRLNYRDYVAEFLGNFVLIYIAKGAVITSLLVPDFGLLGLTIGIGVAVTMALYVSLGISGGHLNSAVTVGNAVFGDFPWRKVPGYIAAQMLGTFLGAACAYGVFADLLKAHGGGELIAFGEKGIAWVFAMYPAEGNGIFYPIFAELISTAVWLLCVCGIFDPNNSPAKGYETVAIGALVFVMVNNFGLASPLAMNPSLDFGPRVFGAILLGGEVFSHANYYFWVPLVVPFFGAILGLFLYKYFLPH

TbAQP2^I110W = TbAQP2^I110W (Trypanosoma brucei brucei, UniProt Q6ZXT3, I110W); experiment: [3H]-pentamidine transport; type: cell-based; details: 30 nM [3H]-pentamidine
Sequence of TbAQP2^I110W (Q6ZXT3 whole entry I110W): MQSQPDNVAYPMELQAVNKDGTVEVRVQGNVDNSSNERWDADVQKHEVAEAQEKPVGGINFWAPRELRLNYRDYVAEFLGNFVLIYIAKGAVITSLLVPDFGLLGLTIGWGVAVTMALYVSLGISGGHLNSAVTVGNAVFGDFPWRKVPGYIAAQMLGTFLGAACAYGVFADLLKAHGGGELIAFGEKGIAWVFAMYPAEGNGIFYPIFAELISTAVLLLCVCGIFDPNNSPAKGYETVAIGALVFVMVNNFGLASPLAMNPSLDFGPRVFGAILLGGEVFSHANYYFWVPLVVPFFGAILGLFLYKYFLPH

[8] = tested on: tbaqp2/tbaqp3 null cells expressing TbAQP2^I190T/W192G; type: cell-based, Trypanosoma brucei brucei
HAPT = details: cited from earlier work
[9] = tested on: tbaqp2/tbaqp3 null cells expressing TbAQP2 L118M; experiment: microbe, parasite or virus in culture; type: cell-based, Trypanosoma brucei brucei
[10] = tested on: tbaqp2/tbaqp3 null cells expressing TbAQP2 L218W; experiment: microbe, parasite or virus in culture; type: cell-based, Trypanosoma brucei brucei
tbaqp2/tbaqp3 null cells [11] = experiment: microbe, parasite or virus in culture; type: cell-based, Trypanosoma brucei brucei
[12] = Trypanosoma brucei, read-out: Alamar blue EC50, MEAN
[13] = Trypanosoma brucei, read-out: Alamar blue EC50, single repeats
[14] = Trypanosoma brucei, read-out: EC50 AVG
[15] = read-out: Alamar blue EC50, single repeats
[16] = read-out: Alamar blue EC50, MEAN
[17] = AQP2/3-dKO, 30 nM [3H]-pentamidine, 1 mM adenosine
[18] = Fig. 3A, exp AQP016-AQP023, AQP2/3-dKO
[19] = Fig. 3A, exp AQP038-AQP041, AQP2/3-dKO
[20] = dKO control of the AQP3 mutant series, over 30 minutes

With N=C(N)c1ccc(OCCCCCOc2ccc(C(=N)N)cc2)cc1 [Pentamidine] the “EC50 as percent of AQP2/3 null EC50, MEAN” value (“EC50 as percent … MEAN” for short) [1] was 8.08%, the EC50 [2, 12] was 32 nM and the EC50 [2, 13] was 34.5 nM. The EC50 [2, 14] was 32 nM, the EC50 [2, 15] was 33.6 nM and 27.8 nM and the “EC50, percent of AQP2/3 null EC50” value [3] was 0.08% and 0.0842% and 1.40% and 0.16%. It also gave an EC50 [3, 12] of 0.84 nM, an EC50 [3, 16] of 1.61 nM and an EC50 [3, 15] of 1.5 nM. The Pentamidine transport rate (TbAQP3^W102I/R256L) was 1.51E-04 pmol/10E7 cells/s, the “pentamidine uptake rate, CRK+tet, AVERAGE” value (CRK12 RNAi cells; CRK12 RNAi induced (+tet), 4 experiments) was 0.00587 pmol/1E7 cells/s-1 and the “pentamidine uptake rate, CRK+tet” value (CRK12 RNAi cells; CRK12 RNAi induced (+tet), single experiments) was 0.00804 pmol/1E7 cells/s-1 and 0.004193 pmol/1E7 cells/s-1 and 0.006636 pmol/1E7 cells/s-1 and 0.004619 pmol/1E7 cells/s-1. For the same compound, the “pentamidine uptake rate, CRK-tet, AVERAGE” value (CRK12 RNAi cells; CRK12 RNAi not induced (-tet), 4 experiments) was 0.00656 pmol/1E7 cells/s-1, the Pentamidine transport rate (tbaqp2/tbaqp3 null cells [4]; [17]) was 0.00022 pmol/10E7 cells/s and 0.000123 pmol/10E7 cells/s and the “Pentamidine transport rate, percent of +AQP2-WT” value (tbaqp2/tbaqp3 null cells [4]; [17]) was 0.383% and 1.05%. The “Pentamidine transport rate AVG” value (tbaqp2/tbaqp3 null cells [4]; AQP2/3-dKO, n=16) was 2.76E-04 pmol/10E7 cells/s, the “Pentamidine transport rate, percent of +AQP2-WT, AVG” value (tbaqp2/tbaqp3 null cells [4]; AQP2/3-dKO, n=16) was 1.08% of +AQP2-WT and the “Pentamidine transport rate, AVG” value (tbaqp2/tbaqp3 null cells [4]; Fig. 3A, exp AQP001-AQP023, AQP2/3-dKO) was 2.76E-04 pmol/10E7 cells/s. For the same compound, the “Pentamidine transport rate as percent of +AQP2-WT, AVG” value (tbaqp2/tbaqp3 null cells [4]; [18]) was 1.32%, the “Pentamidine transport rate as percent of +AQP2-WT, single experiments” value (tbaqp2/tbaqp3 null cells [4]; [18]) was 1.4% and 1.5% and 1.0% and the “Pentamidine transport rate as percent of +AQP2-WT, AVG” value (tbaqp2/tbaqp3 null cells [4]; [19]) was 0.383%. The “Pentamidine transport rate, AVG” value (tbaqp2/tbaqp3 null cells [4]; [19]) was 0.000123 pmol/10E7 cells/s, the “Pentamidine transport rate, single experiments” value (tbaqp2/tbaqp3 null cells [4]; [19]) was 0.0001045 pmol/10E7 cells/s and 0.0001529 pmol/10E7 cells/s and 0.0001563 pmol/10E7 cells/s and 8.02E-05 pmol/10E7 cells/s and the Pentamidine transport rate (tbaqp2/tbaqp3 null cells [4]; [20]) was 1.22E-04 pmol/10E7 cells/s. For the same compound, the “Pentamidine transport rate, percent of TbAQP2WT control” value (tbaqp2/tbaqp3 null cells [4]; [20]) was 0.57%, the “Transport rate AVG” value (tbaqp2/tbaqp3 null cells [4]; strain AQKO, unit not given, +AQP2-WT = 100) was 1.05 and the Pentamidine transport rate (TbAQP3^W102I/R256L/Y250L) was 2.46E-04 pmol/10E7 cells/s. For the same compound, the “Gibbs free energy of pentamidine/AQP2 interaction” value (TbAQP2/HAPT1) was -10 kcal/mol, the “Transport rate AVG” value (T. b. brucei 2T1) was 21.86 and the Pentamidine transport rate (TbAQP2^L264R) was 0.00017 pmol/10E7 cells/s. For the same compound, the EC50 ([5]; +L84M in aqp1-3 triple KO, read-out: Alamar blue EC50, single repeats) was 0.8 nM and 0.9 nM, the EC50 ([5]; +L84W in aqp1-3 triple KO, read-out: Alamar blue EC50, single repeats) was 18.7 nM and 15.3 nM and the EC50 ([5]; +L84W/L118W in aqp1-3 triple KO, read-out: Alamar blue EC50, single repeats) was 65.7 nM. The EC50 ([5]; +L118M in aqp1-3 triple KO, read-out: Alamar blue EC50, single repeats) was 27.8 nM and 29.4 nM, the EC50 ([5]; +L118W in aqp1-3 triple KO, read-out: Alamar blue EC50, single repeats) was 27.1 nM and 25.8 nM and the EC50 ([5]; +L218W in aqp1-3 triple KO, read-out: Alamar blue EC50, single repeats) was 3.9 nM and 5.3 nM. The EC50 ([5]; Trypanosoma brucei, +L84M in aqp1-3 triple KO, 3 repeats, read-out: Alamar blue EC50, MEAN) was 0.77 nM, the EC50 ([5]; Trypanosoma brucei, +L84M in aqp1-3 triple KO, read-out: Alamar blue EC50, single repeats) was 0.65 nM and the EC50 ([5]; Trypanosoma brucei, +L84W in aqp1-3 triple KO, 3 repeats, read-out: Alamar blue EC50, MEAN) was 16.1 nM. For the same compound, the EC50 ([5]; Trypanosoma brucei, +L84W in aqp1-3 triple KO, read-out: Alamar blue EC50, single repeats) was 14.4 nM, the EC50 ([5]; Trypanosoma brucei, +L84W/L118W in aqp1-3 triple KO, read-out: Alamar blue EC50, single repeats) was 53.4 nM and the EC50 ([5]; Trypanosoma brucei, +L118M in aqp1-3 triple KO, 3 repeats, read-out: Alamar blue EC50, MEAN) was 28 nM. It also gave an EC50 ([5]; Trypanosoma brucei, +L118M in aqp1-3 triple KO, read-out: Alamar blue EC50, single repeats) of 26.8 nM, an EC50 ([5]; Trypanosoma brucei, +L118W in aqp1-3 triple KO, 3 repeats, read-out: Alamar blue EC50, MEAN) of 26.6 nM and an EC50 ([5]; Trypanosoma brucei, +L118W in aqp1-3 triple KO, read-out: Alamar blue EC50, single repeats) of 26.9 nM. For the same compound, the EC50 ([5]; Trypanosoma brucei, +L218M in aqp1-3 triple KO, 3 repeats, read-out: Alamar blue EC50, MEAN) was 0.63 nM, the EC50 ([5]; Trypanosoma brucei, +L218W in aqp1-3 triple KO, 3 repeats, read-out: Alamar blue EC50, MEAN) was 4.39 nM and the EC50 ([5]; Trypanosoma brucei, +L218W in aqp1-3 triple KO, read-out: Alamar blue EC50, single repeats) was 4 nM. The “EC50 as percent … MEAN” value [6] was 83.83%, the “Pentamidine transport rate AVG” value (TbAQP2 L84W) was 0.0006628 pmol/10E7 cells/s and the Pentamidine transport rate (TbAQP2^S131P/S263A) was 0.00111 pmol/10E7 cells/s. For the same compound, the “EC50, percent of AQP2/3 null EC50” value [7] was 0.50%, the Pentamidine transport rate (TbAQP2^L258Y) was 0.0004 pmol/10E7 cells/s and the “Pentamidine transport rate AVG” value (TbAQP2 L218W) was 0.002093 pmol/10E7 cells/s. For the same compound, the Pentamidine transport rate (TbAQP2^I110W) was 0.000216 pmol/10E7 cells/s, the “EC50 as percent … MEAN” value [8] was 99.52% and the “EC50 as percent of AQP2/3 null EC50, single repeats” value [8] was 131.67% and 89.434% and 77.4635%. For the same compound, the Vmax (HAPT) was 0.0044 ± 0.0004 pmol(10^7 cells)^−1 s^−1, the “Vmax for HAPT-mediated pentamidine uptake” value (HAPT) was 9.5 × 10^5 molecules/cell/h and 8.5 × 10^6 molecules/cell/h and the EC50 [9, 12] was 34.2 nM. For the same compound, the EC50 [9, 13] was 39 nM, the EC50 [9, 14] was 34.2 nM and the EC50 [9, 15] was 39.5 nM and 24.2 nM. The EC50 [10, 12] was 4.39 nM, the EC50 [10, 13] was 4 nM and the EC50 [10, 14] was 4.4 nM. The EC50 [10, 15] was 3.9 nM and 5.3 nM, the “EC50, percent of AQP2/3 null EC50” value (tbaqp2/tbaqp3 null cells [11]) was 100.00% and the “EC50 as percent … MEAN” value (tbaqp2/tbaqp3 null cells [11]) was 100.00%. The “EC50 as percent of AQP2/3 null EC50, single repeats” value (tbaqp2/tbaqp3 null cells [11]) was 100%, the EC50 (tbaqp2/tbaqp3 null cells [11]; [12]) was 66.3 nM and the EC50 (tbaqp2/tbaqp3 null cells [11]; [13]) was 69.3 nM. The EC50 (tbaqp2/tbaqp3 null cells [11]; [16]) was 72.3 nM and the EC50 (tbaqp2/tbaqp3 null cells [11]; [15]) was 52.1 nM and 77.6 nM and 77.5 nM and 68.9 nM and 70.5 nM.
